Assay results from the CheMixHub viscosity set.

Assay: xn = mol fraction of the nth substance listed

CCOC(=O)CC(C)=O + CCCCCCO
viscosity [mPa·s], 100 kPa
Conditions	x1 = 0.1053	x1 = 0.1983	x1 = 0.2962	x1 = 0.3947	x1 = 0.4947	x1 = 0.5989	x1 = 0.6989	x1 = 0.7954	x1 = 0.892
293.15 K	3.828	3.026	2.545	2.245	2.034	1.867	1.749	1.688	1.655
298.15 K	3.286	2.644	2.285	2.022	1.809	1.651	1.571	1.555	1.538

CCCCCCCCCCCO + CCCCCCO
viscosity [mPa·s], 101.8 kPa
Conditions	x2 = 0.1577	x2 = 0.4196	x2 = 0.6279	x2 = 0.7981	x2 = 0.9389
298.15 K	12.3	9.508	7.506	6.064	4.788
308.15 K	8.55	6.727	5.412	4.436	3.545
318.15 K	6.083	4.876	3.983	3.309	2.68

CC(C)NC(C)C + CCCCOCCO
viscosity [mPa·s], 100 kPa
Conditions	298.15 K	303.15 K	308.15 K
x2 = 0.0501	0.42	0.4	0.38
x2 = 0.1005	0.47	0.44	0.42
x2 = 0.15	0.54	0.5	0.47
x2 = 0.2024	0.63	0.58	0.54
x2 = 0.2999	0.8	0.73	0.68
x2 = 0.3999	1.06	0.95	0.89
x2 = 0.5001	1.38	1.23	1.14
x2 = 0.6002	1.77	1.56	1.42
x2 = 0.6997	2.14	1.85	1.68
x2 = 0.7998	2.48	2.14	1.95
x2 = 0.8999	2.74	2.39	2.14
x2 = 0.9499	2.82	2.47	2.21

O=CN1CCOCC1 + Cc1cccc(C)c1
viscosity [mPa·s]
Conditions	298.15 K	303.15 K	313.15 K	323.15 K
101 kPa, x2 = 0.1	5.508	4.826	3.793	3.081
101 kPa, x2 = 0.2	4.047	3.589	2.886	2.4
101 kPa, x2 = 0.3	3.049	2.741	2.257	1.905
101 kPa, x2 = 0.4	2.34	2.132	1.778	1.522
101 kPa, x2 = 0.5	1.792	1.646	1.381	1.192
101 kPa, x2 = 0.6	1.38	1.267	1.076	0.9311
101 kPa, x2 = 0.7	1.082	1.002	0.8623	0.7574
101 kPa, x2 = 0.8	0.8664	0.8124	0.708	0.6298
101 kPa, x2 = 0.9	0.7069	0.6603	0.586	0.5286
101.3 kPa, x2 = 0.03245	7.014	–	–	–
101.3 kPa, x2 = 0.06364	6.442	–	–	–
101.3 kPa, x2 = 0.09907	5.89	–	–	–
101.3 kPa, x2 = 0.1608	5.016	–	–	–
101.3 kPa, x2 = 0.2806	3.707	–	–	–
101.3 kPa, x2 = 0.3561	3.033	–	–	–
101.3 kPa, x2 = 0.4744	2.278	–	–	–
101.3 kPa, x2 = 0.5701	1.829	–	–	–
101.3 kPa, x2 = 0.6556	1.511	–	–	–
101.3 kPa, x2 = 0.6984	1.38	–	–	–
101.3 kPa, x2 = 0.7819	1.159	–	–	–
101.3 kPa, x2 = 0.876	0.961	–	–	–
101.3 kPa, x2 = 0.9337	0.875	–	–	–
